{
  "source": "patent US20130023504A1",
  "about": "“Modulation of Prostaglandin/Cyclooxygenase Metabolic Pathways” (HUNTER-FLEMING LIMITED, priority 2006, published 2013)",
  "test_system": "rats with DSS-induced colitis",
  "experiment": "DSS-induced colitis in rats, 7-day i.p. pre-treatment",
  "format": "in vivo, rat",
  "conditions": "for Body weight: DSS (5%) day 7-14",
  "text": "All experimental protocols and procedures were in agreement with the directive 86/609/CEE of the European Community, for the use of laboratory animals. Male Wistar rats (180-200 g), purchased from Charles River (L'Arbresle, France) were fed with rodent laboratory chow and were given water ad libitum.\nAfter a 7-day adaptation period, animals were divided into two control groups (sham-control and 7β-hydroxy-EPIA-treated control group and two colitis groups (colitis and 7β-hydroxy-EPIA-treated colitis). 7β-Hydroxy-EPIA (0.01, 0.1, and 1 mg/kg body weight dissolved in DMSO) or DMSO alone (vehicle) was administered i.p. once a day for 7 days, from day 0 to day 7. Colitis was induced from day 7 to 14 by addition of DSS (molecular weight 36-50 kDa; MP Biomedicals, France) to drinking water. The two control groups received tap water only.\nAt day 9, 11, 13, 14, body weight, colon length, stool consistency, were recorded and fresh rectal bleeding evaluated by ocular inspection. The severity of colonic damage was blindly scored as described by Mabley et al., 2001, Inflamm. Res.; 50: 561-569) (0: well-formed pellets and no colon damage; 1: colon with a small amount of blood present mixed with feces; 2: colon with large amount of blood present with faeces; 3: colon filled with blood and no faeces).\nA portion of the proximal colon (1 cm) was fixed in 4% formaldehyde (Labonord, Templemars, France) and embedded in paraffin. Tissue sections (5 μm) were prepared, thereafter cleared, hydrated and stained either with hematoxylin/eosin or with Alcian blue according to standard protocols for histological evaluation of colonic damage and mucus goblet cells content, respectively.\nThe colon was opened along the mesenteric border, and the epithelial cells were scrapped away with the blunt edge of a glass slide then weighed, washed and centrifuged. The pellet was homogenized in 9 volumes TKE buffer (10 mM Tris-HCl; 150 mM KCl; 1 mM EDTA; 0.25 mM PMSF, pH 7.4) and then frozen at −80° C. until further use. The protein content of homogenates were measured according to Lowry et al. (J Biol Chem 1951; 193: 265-74).\nMPO activity was assessed in homogenates using the o-dianisidine method of Krawisz et al. (Gastroenterology 1984; 87(6):1344-50) with the modifications of Pelissier et al. (Steroids 2006; 71(3):240-8). MPO activity was expressed as the amount of enzyme necessary to produce a per minute change in absorbance at 460 nm using the extinction coefficient for oxidized o-dianisidine (1.13×10^4 mol^−1.cm^−1).\nLipid peroxidation (Tbars) was measured by a modification by Albrecht et al., (1992, Toxicol. Lett; 63: 91-96) of the method described by Ohkawa et al. (Anal Biochem 1979; 95:315-58). Absorbance of the red 1:2 adduct malondialdehyde-thiobarbituric acid (Sigma-Aldrich, St Quentin-Fallavier, France) was measured at 532 nm (extinction coefficient used: 0.156 μmol^−1 cm^−1). The carbonyl contents in oxidized proteins (Prot CO) were assessed by the method of Levine et al. (Methods Enzymol 1990; 186:464-78). The non-protein sulfhydryl group content (mostly GSH) was taken as the anti-oxidant defense marker in homogenates and determined by the method of Sedlak and Lindsay (Anal Biochem 1968; 25(1):192-205).\nCommercially available EIA kits were used for the determination of PGE2 levels (Oxford Biomedical Research, UK) and 15d-PGJ2 levels (Assay designs, Euromedex, France) in colonic supernatants obtained from fresh homogenates. Measurement of PGD2 levels was obtained using the prostaglandin D2-MOX EIA kit (Cayman Chemical, Euromedex). In this case, and prior to assay, the fresh samples were immediately treated with the MOX-HCl reagent which converted PGD2 into PGD2-MOX, thus preventing any further chemical degradation.\nTotal RNA from fresh colonic samples (300 mg) was extracted using Trizol Reagent (Invitrogen, Cergy-Pontoise, France). […]",
  "note": "Marks after values point to notes of the source that are not given here.",
  "data": [
    {"compound": "CC12CCC3C(C1CCC2=O)[C@@H](O)C[C@H]1C[C@@H](O)CCC31C", "note": "(stereo partly drawn) [Compound 7β-OH-EPIA, 7β-hydroxy-EPIAndrosterone]", "values": [
      {"measurement": "colitis damage and tissue inflammation", "setting": "0.01 mg/kg", "result": "completely prevented"},
      {"measurement": "Body weight", "setting": "0.01 mg/kg body weight i.p. day 0-7, day 14", "result": "297.5 ± 9.5^a g"},
      {"measurement": "DSS-induced production of colonic PGE2", "setting": "0.01 mg/kg from D0 to D7", "result": "completely prevented"},
      {"measurement": "colonic level of 15d-PGJ2", "setting": "0.01 mg/kg from D0 to D7, DSS", "result": "dramatically increasing"},
      {"measurement": "Colon length", "setting": "0.01 mg/kg, day 14", "result": "16 ± 0.01^c cm"},
      {"measurement": "Epididymis weight", "setting": "0.01 mg/kg, day 14", "result": "2.5 ± 0.03^a g"},
      {"measurement": "Liver weight", "setting": "0.01 mg/kg, day 14", "result": "12.1 ± 0.3^a g"},
      {"measurement": "Spleen weight", "setting": "0.01 mg/kg, day 14", "result": "0.8 ± 0.02^a g"},
      {"measurement": "Body weight", "setting": "0.1 mg/kg body weight i.p. day 0-7, day 14", "result": "272.1 ± 6^b g"},
      {"measurement": "Colon length", "setting": "0.1 mg/kg, day 14", "result": "15.6 ± 0.3^c cm"},
      {"measurement": "Epididymis weight", "setting": "0.1 mg/kg, day 14", "result": "1.9 ± 0.14^b g"},
      {"measurement": "Liver weight", "setting": "0.1 mg/kg, day 14", "result": "12.3 ± 0.6^a g"},
      {"measurement": "Spleen weight", "setting": "0.1 mg/kg, day 14", "result": "1.03 ± 0.2^a g"},
      {"measurement": "Body weight", "setting": "1 mg/kg body weight i.p. day 0-7, day 14", "result": "267.3 ± 7.7^b g"},
      {"measurement": "Colon length", "setting": "1 mg/kg, day 14", "result": "14.2 ± 0.6^b cm"},
      {"measurement": "Epididymis weight", "setting": "1 mg/kg, day 14", "result": "1.9 ± 0.1^b g"},
      {"measurement": "Liver weight", "setting": "1 mg/kg, day 14", "result": "11.9 ± 0.4^a g"},
      {"measurement": "Spleen weight", "setting": "1 mg/kg, day 14", "result": "0.82 ± 0.06^a g"},
      {"measurement": "diarrhea and rectal bleeding", "setting": "0.01, 0.1 mg/kg, day 14", "result": "suppression"},
      {"measurement": "MPO activity in colonic mucosa", "setting": "all dose levels, 0.01, 0.1 and 1 mg/kg, vs colitis group", "result": "significantly decreased"},
      {"measurement": "oxidative stress parameters (Prot CO, Tbars, GSH) in colonic tissue", "setting": "day 13 and 14, all dose levels", "result": "restored"},
      {"measurement": "increase in COX-2 and mPGES-1 mRNA synthesis by DSS", "setting": "pre-treatment day 0 to day 7", "result": "suppressed"}
    ]}
  ]
}
